Patent US11518764B2, “Substituted heteroaryls as inhibitors of the BCL6 BTB domain protein-protein interaction” (Ontario Institute for Cancer Research (OICR), priority 2018, dated 2022)

Legend:
BCL6 BTB domain = BCL6 BTB domain (Homo sapiens (Human), UniProt P41182); assay: Surface plasmon resonance (SPR) assay; assay type: binding; details: BCL6 BTB domain captured on SA chip, single cycle kinetics
Karpas422 cells = assay: Tumor cell growth inhibition assay; assay type: cell-based; details: Homo sapiens, KARPAS-422, 144 h, read-out: Tumor Growth Inhibition in Karpas-422 (IC50, uM), Karpas422 cells, six days, ATPlite
Procedure: Tumor Cell Growth inhibition Assay
Karpas422 cells were seeded into a 96-well plate at 2,000 cells/well in 150 ul medium (Alpha-MEM containing 10% FBS, […] Normocin, and […] Gentamycin, Invitrogen). A HP D300 digital dispenser was used to dose cells with DMSO or test compounds across a 10-point range of concentrations (high dose of 5 uM), and cultures were grown in a humidified 5% CO2 incubator at 37° C. After six days, plates were removed from incubator and equilibrated to room temperature. An equal volume of ATPlite assay reagent was added to each well, and samples were processed according to manufacturer's instructions (Perkin Elmer). Luminescent signal was measured using an Envision plate reader equipped with a US-Luminescence detector.

[1] = test system: BCL6 reporter construct (3xBCL6-TK-Luc) in SuDHL4 cells; assay: Cell-based luciferase assay; details: Homo sapiens, SU-DHL-4, 48 h, read-out: Luciferase-Assay EC50, uM), SuDHL4-3xBCL6-TK-Luc cells, two days, high dose 10 uM
Procedure: Cell-Based Luciferase Assay
A BCL6 reporter construct containing three copies of the consensus BCL6 binding site, the TK promoter, and the firefly luciferase gene was stably expressed in SuDHL4 cells after lentivirus infection and selection with Blasticidin. SuDHL4-3×BCL6-TK-Luc cells were seeded into a Viewplate 384-well assay dish at 15,000 cells/well in 25 ul medium (Alpha-MEM high glucose containing 10% FBS, 25 mM HEPES, […] GlutaMAX, 100 ug/ml Normocin, and […] Gentamycin, Invitrogen). A HP D300 digital dispenser was used to dose cells with DMSO or test compounds across a 10-point range of concentrations (high dose of 10 uM), and cultures were grown in a humidified 5% CO2 incubator at 37° C. After two days, plates were removed from the incubator and equilibrated to room temperature. An equal volume of neolite reporter gene assay reagent was added to each well, and samples were processed according to manufacturer's instructions (Perkin Elmer). Luminescent signal was measured using an Envision plate reader equipped with a US-Luminescence detector.

Compound	Kd (BCL6 BTB domain)	IC50 (Karpas422 cells)	EC50 [1]
C[C@@H]1CN(c2cc(NC(=O)Cn3cc(-c4cc(C(N)=O)c(O)c(F)c4F)c4c(=O)n(C)cnc43)c(Cl)cn2)C[C@H](C)N1C [Compound I-353]	75 nM	0.648 µM	1.35 µM
Cn1cnc2c(c(-c3cc(Cl)c(O)c(C(N)=O)c3)cn2CC(=O)Nc2cc(N3CCOC4CCCC43)ncc2Cl)c1=O (stereo not drawn) [Compound I-280]	101 nM	0.821 µM	1.4 µM
CO[C@H]1CN(c2cc(NC(=O)Cn3cc(-c4cc(C(N)=O)c(O)c(F)c4F)c4c(=O)n(C)cnc43)c(Cl)cn2)C[C@H]1F [Compound I-364]	25 nM	1.04 µM	0.819 µM
CN(C)CC1CN(c2cc(NC(=O)Cn3cc(-c4cc(Cl)c(O)c(C(N)=O)c4)c4c(=O)n(C)cnc43)c(Cl)cn2)CCO1 (stereo not drawn) [Compound I-215]	9.81 nM	0.662 µM	0.806 µM
CC(C)N1CCN(c2cc(NC(=O)Cn3cc(-c4cc(Cl)c(O)c(C(N)=O)c4)c4c(=O)n(C)cnc43)c(Cl)cn2)[C@@H](C)C1 [Compound I-271]	16 nM	0.22 µM	0.208 µM
Cc1nc2c(s1)CN(c1cc(NC(=O)Cn3cc(-c4cc(Cl)c(O)c(C(N)=O)c4)c4c(=O)n(C)cnc43)c(Cl)cn1)C2 [Compound I-108]	30 nM	0.408 µM	0.203 µM
C[C@@H]1CN(c2cc(NC(=O)Cn3cc(-c4cc(Cl)c(O)c(C(N)=O)c4)c4c(=O)[nH]cnc43)c(Cl)cn2)C[C@H](C)O1 [Compound I-166]	15 nM	0.0862 µM	0.184 µM
COCCN1CCN(c2cc(NC(=O)Cn3cc(-c4cc(C(N)=O)c(O)c5c4OCO5)c4c(=O)n(C)cnc43)c(Cl)c(F)n2)[C@@H](C)C1 [Compound I-375]	1.31 nM	0.0256 µM	0.0114 µM
Cn1cnc2c(c(-c3cc(Cl)c(O)c(C(N)=O)c3)cn2CC(=O)Nc2cc3c(cc2Cl)OCC(=O)N3CCN2CCOCC2)c1=O [Compound I-214]	31.2 nM	0.855 µM	1.35 µM
CO[C@@H]1CN(c2cc(NC(=O)Cn3cc(-c4cc(Cl)c(O)c(C(N)=O)c4)c4c(=O)n(C)c(C)nc43)c(Cl)cn2)C[C@@H]1F [Compound I-402]	28 nM	0.714 µM	0.18 µM
CN(C)c1cc(NC(=O)Cn2cc(-c3cc(F)c(O)c(C(N)=O)c3)c3c(=O)n(C)cnc32)c(Cl)cn1 [Compound I-288]	9.47 nM	0.128 µM	0.181 µM
CO[C@@H]1CC(c2cc(NC(=O)Cn3cc(-c4cc(Cl)c(O)c(C(N)=O)c4)c4c(=O)n(C)cnc43)c(Cl)c(F)n2)C[C@@H]1F (stereo partly drawn) [Compound I-440]	15.8 nM	0.291 µM	0.286 µM
C[C@H]1CN(C2COC2)CCN1c1cc(NC(=O)Cn2cc(-c3cc(C(N)=O)c(O)c(F)c3F)c3c(=O)n(C)cnc32)c(Cl)c(F)n1 [Compound I-437]	11.3 nM	0.124 µM	0.231 µM
CC(C)N1CCN(c2cc(NC(=O)Cn3cc(-c4cc(Cl)c(O)c(C(N)=O)c4)c4c(=O)n(C)c(C(F)(F)F)nc43)c(Cl)cn2)[C@@H](C)C1 [Compound I-274]	138 nM	0.332 µM	0.669 µM
C[C@H]1COCCN1c1cc(NC(=O)Cn2cc(-c3cc(F)c(O)c(C(N)=O)c3)c3c(=O)n(C)cnc32)c(Cl)cn1 [Compound I-157]	6.1 nM	0.148 µM	0.18 µM
Cc1nc2c(c(-c3cc(C(N)=O)c(O)c(F)c3F)cn2CC(=O)Nc2cc(N3CCN(C4COC4)C[C@@H]3C)ncc2Cl)c(=O)n1C [Compound I-344]	13.8 nM	0.701 µM	0.317 µM
C[C@H]1COCCN1c1cc(NC(=O)Cn2cc(-c3cc(Cl)c(O)c(C(N)=O)c3)c3c(=O)n(C)c(C(F)(F)F)nc32)c(Cl)cn1 [Compound I-216]	76.4 nM	0.831 µM	0.97 µM
